Results: PubChem BioAssay AID1963435 (Molecular Pharmacology Branch, DTP, NCI, 2024)

System: PANC-1 complex spheroid growth, percent test/control
Experiment: Anticancer human tumor PANC-1 cell line growth inhibition [Asc];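 also: spheroids exposed to agents for 7 days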;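 as to viability, T/C: percent viability relative to DMSO vehicle wells taken as 100%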
Settings: for IC50: curve of first compound; for viability, T/C: stronger effect = lower value
Experimental: Multicellular complex tumor spheroid response to apoptosis pathway targeting inhibitors Alrizomadlin, Pelcitoclax, and Dasminapant in combination with a variety of drugs and investigational agents in selected tumor cell lines
The MDM2 inhibitor alrizomadlin, the Bcl-2/Bcl-xL inhibitor pelcitoclax, and the IAPs inhibitor dasminapant were evaluated both individually and in combination with standard of care and investigational anticancer small molecules within a complex spheroid model of solid tumors. . Complex spheroids include a stromal component modeled by human endothelial cells (HUVEC) and fibroblasts modeled by human mesenchymal stem cells (MSCs). The concentration ranges selected for each drug and investigational agent were based upon clinically achievable concentrations if the clinical Cmax of the agent was known.
Compounds. The drugs and investigational agents: alrizomadlin (APG-115; NSC831270), pelcitoclax (APG-1252; NSC835773), dasminapant (APG-1387;NSC834197), TAK-243 (NSC785004), copanlisib (NSC809693), olaparib (NSC753686), talazoparib (NSC767125), cobimetinib (NSC 768068), eltanexor (KPT-8602, NSC 794443), abemaciclib (NSC 768073), sotorasib (NSC818433), adagrasib (NSC 831453), MRTX-1133 (NSC 836407), Iadademestat (ORY1001, NSC 806812), and RMC-4630 (NSC839698), were obtained from the NCI Developmental Therapeutics Program Chemical Repository. The FDA-approved anticancer drug set is available from the Developmental Therapeutics Program at https://dtp.cancer.gov/organization/dscb/obtaining/available plates.htm. […] The stock solutions were prepared in dimethyl sulfoxide (DMSO, Sigma-Aldrich, St. Louis, MO, cat. D2650) at 800-fold the tested concentration and stored at -70 degrees C prior to their use. All drugs and investigational agents were tested over a range starting from a high concentration at or near the clinical Cmax and decreasing in half-log increments. If the clinical Cmax for an agent had not been determined, the highest concentration tested was 10 microM.
The patient-derived cancer (PDC) cell lines include five colon adenocarcinomas: 186277-243-T-J2-PDC, 616215-338-R-J1-PDC, 439559-082-T-J2-PDC, 463943-066-T-J2-PDC, and 519858-162-T-J1-PDC; three pancreatic carcinomas: 323965-272-R-J2-PDC, 521955-158-R6-J3-PDC, and 521955-158-R2-J5-PDC; two uterine sarcomas: 327498-152-R-J2-PDC and 993429-296-R-J1-PDC; two rhabdomyosarcomas: 755483-174-R-J1-PDC and 772245-204-R-J1-PDC; two soft tissue sarcomas: 126254-015-R-J1-PDC and 494315-158-R-J1-PDC; two malignant fibrous histiocytomas: 317291-083-R-J1-PDC and 596521-263-R-J1-PDC; two breast carcinomas: 171881-019-R-J1-PDC and 885512-296-R-J2-PDC; and one ovarian carcinoma: 6556581-035-R-J-PDC were obtained from the NCI PDMR, (https://pdmr.cancer.gov). The established cell lines HSSY-2 synovial sarcoma (RRID:CVCL 8719), SYO-1 synovial sarcoma (RRID:CVCL_7146), MPNST malignant peripheral neural sheath tumor were obtained from the Sloan Kettering Institute. The following established cell lines were purchased from the American Type Culture Collection (ATCC, Manassas, VA), Sor the received from the NCI repository:, PANC-1 pancreatic carcinoma (CRL-1469, RRID:CVCL_0480), OVCAR-5 ovarian carcinoma (RRID:CVCL_1628), OVCAR-8 ovarian carcinoma (RRID:CVCL_1629), , MCF-7 breast carcinoma (CRL-12584, RRID:CVCL_0031), MDA-MB-231 breast carcinoma (CRL-12532, RRID:CVCL_0062), NCI-H1876 small cell lung carcinoma (CRL-5902, RRID:CVCL_1503), NCI-H510A small cell lung carcinoma (HTB-184, RRID:CVCL_1565), NCI-H1417 (CRL-5869, RRID:CVCL_1469), and NCI-H196 small cell lung carcinoma (CRL-5823, RRID:CVCL_1509). Dr. Peter Houghton (Greehey Children's Cancer Research Institute, University of Texas Health Science Center, San Antonio, TX) provided Rh-18 rhabdomyosarcoma (RRID:CVCL_1659). Pooled donor human umbilical vein endothelial cells (HUVEC, Lonza, cat. CC-2519) and human mesenchymal stem cells (hMSC, Lonza, cat. PT-2501) were purchased from Lonza (Walkersville, MD).
Cell Culture. […]

In the case of `NC1CCC(NC2CC2c2ccccc2)CC1` (configuration not stated) + CCN1C(C(=O)NC23CCC(C(=O)O)(CC2)CC3)C(c2cccc(Cl)c2F)C2(C(=O)Nc3cc(Cl)ccc32)C12CCCCC2, the IC50 (second compound 0.00949 µM) is reported as > 0.1 µM, the IC50 (second compound 0.03 µM) is reported as > 0.1 µM and the IC50 (second compound 0.0949 µM) is reported as > 0.1 µM. For the same compound, the IC50 (second compound 0.3 µM) was > 0.1 µM, the IC50 (second compound 0.949 µM) was > 0.1 µM and the IC50 (second compound 3 µM) was > 0.1 µM. It also gave a viability, T/C (second compound 0.00949 µM, first compound 0.000316 µM) of 97.6%, a viability, T/C (second compound 0.00949 µM, first compound 0.001 µM) of 89% and a viability, T/C (second compound 0.00949 µM, first compound 0.00316 µM) of 97.2%. The viability, T/C (second compound 0.00949 µM, first compound 0.01 µM) was 85.9%, the viability, T/C (second compound 0.00949 µM, first compound 0.0316 µM) was 82% and the viability, T/C (second compound 0.00949 µM, first compound 0.1 µM) was 104%. It also gave a viability, T/C (second compound 0.03 µM, first compound 0.000316 µM) of 84.6%, a viability, T/C (second compound 0.03 µM, first compound 0.001 µM) of 90.1% and a viability, T/C (second compound 0.03 µM, first compound 0.00316 µM) of 103%. It also gave a viability, T/C (second compound 0.03 µM, first compound 0.01 µM) of 87%, a viability, T/C (second compound 0.03 µM, first compound 0.0316 µM) of 91.2% and a viability, T/C (second compound 0.03 µM, first compound 0.1 µM) of 90.1%. For the same compound, the viability, T/C (second compound 0.0949 µM, first compound 0.000316 µM) was 99.7%, the viability, T/C (second compound 0.0949 µM, first compound 0.001 µM) was 94.7% and the viability, T/C (second compound 0.0949 µM, first compound 0.00316 µM) was 93.5%. For the same compound, the viability, T/C (second compound 0.0949 µM, first compound 0.01 µM) was 95.5%, the viability, T/C (second compound 0.0949 µM, first compound 0.0316 µM) was 97.7% and the viability, T/C (second compound 0.0949 µM, first compound 0.1 µM) was 95.4%. It also gave a viability, T/C (second compound 0.3 µM, first compound 0.000316 µM) of 96.7%, a viability, T/C (second compound 0.3 µM, first compound 0.001 µM) of 101% and a viability, T/C (second compound 0.3 µM, first compound 0.00316 µM) of 102%. For the same compound, the viability, T/C (second compound 0.3 µM, first compound 0.01 µM) was 98.2%, the viability, T/C (second compound 0.3 µM, first compound 0.0316 µM) was 102% and the viability, T/C (second compound 0.3 µM, first compound 0.1 µM) was 91%. The viability, T/C (second compound 0.949 µM, first compound 0.000316 µM) was 109%, the viability, T/C (second compound 0.949 µM, first compound 0.001 µM) was 115% and the viability, T/C (second compound 0.949 µM, first compound 0.00316 µM) was 104%. It also gave a viability, T/C (second compound 0.949 µM, first compound 0.01 µM) of 107%, a viability, T/C (second compound 0.949 µM, first compound 0.0316 µM) of 97.2% and a viability, T/C (second compound 0.949 µM, first compound 0.1 µM) of 89.2%. It also gave a viability, T/C (second compound 3 µM, first compound 0.000316 µM) of 109%, a viability, T/C (second compound 3 µM, first compound 0.001 µM) of 112% and a viability, T/C (second compound 3 µM, first compound 0.00316 µM) of 101%. It also gave a viability, T/C (second compound 3 µM, first compound 0.01 µM) of 110%, a viability, T/C (second compound 3 µM, first compound 0.0316 µM) of 95.6% and a viability, T/C (second compound 3 µM, first compound 0.1 µM) of 110%.
